Measured values as given in ChEMBL document CHEMBL1201862, “PubChem BioAssay data set” (2004).
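Cultured in 96-well plates, cells were exposed to test compound for 48 hours across five concentrations. GI50 marks 50% less growth.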 The source made the active and inactive calls. Cut-off read from the data, not from the text of the source: active = GI50 up to about 1.1 µM and inactive = higher.

Experiments:
Assay in all cases: inhibition of tumour cell growth, NCI panel, 48 h
NCI-H226 = system: NCI-H226
NCI/ADR-RES = system: NCI/ADR-RES
MOLT-4 = system: MOLT-4
SN12C = system: SN12C
K562 = system: K562
NCI-H23 = system: NCI-H23
U-251 = system: U-251
UACC-62 = system: UACC-62
A549 = system: A549
PC-3 = system: PC-3
HCC 2998 = system: HCC 2998
M14 = system: M14
MDA-MB-231 = system: MDA-MB-231
HOP-62 = system: HOP-62
HOP-92 = system: HOP-92
SK-OV-3 = system: SK-OV-3
TK-10 = system: TK-10
SF-539 = system: SF-539
CAKI-1 = system: CAKI-1
HCT-15 = system: HCT-15

Structure (SMILES) | GI50 (NCI-H226) | GI50 (NCI/ADR-RES) | GI50 (MOLT-4) | GI50 (SN12C) | GI50 (K562) | GI50 (NCI-H23) | GI50 (U-251) | GI50 (UACC-62) | GI50 (A549) | GI50 (PC-3) | GI50 (HCC 2998) | GI50 (M14) | GI50 (MDA-MB-231) | GI50 (HOP-62) | GI50 (HOP-92) | GI50 (SK-OV-3) | GI50 (TK-10) | GI50 (SF-539) | GI50 (CAKI-1) | GI50 (HCT-15) [µM]
Cc1cc2oc(=N)c(C#N)c(C)c2cc1C | 87.7 µM (inactive) | 55.1 µM (inactive) | 2.5 µM (inactive) | 96.2 µM (inactive) | 24.5 µM (inactive) | 31.3 µM (inactive) | 65.6 µM (inactive) | 47.4 µM (inactive) | 48.8 µM (inactive) | 36.9 µM (inactive) | 52.5 µM (inactive) | 67.6 µM (inactive) | > 100 µM (inactive) | 52 µM (inactive) | 44.2 µM (inactive) | 35.2 µM (inactive) | 67.3 µM (inactive) | 62.8 µM (inactive) | 57.8 µM (inactive) | 42.3
NC(=O)c1cnc2sc3ccccc3n2c1=O | 34.5 µM (inactive) | > 100 µM (inactive) | > 100 µM (inactive) | > 100 µM (inactive) | > 100 µM (inactive) | – | – | > 100 µM (inactive) | 67.9 µM (inactive) | > 100 µM (inactive) | > 100 µM (inactive) | > 100 µM (inactive) | > 100 µM (inactive) | > 100 µM (inactive) | 91.4 µM (inactive) | > 100 µM (inactive) | > 100 µM (inactive) | > 100 µM (inactive) | > 100 µM (inactive) | > 100
O[C@@H]1C[C@H]2N3CC[C@@]2(c2cc4c(cc2C3)OCO4)[C@H]2O[C@@H]12 | 0.0271 µM (active) | > 100 µM (inactive) | > 100 µM (inactive) | > 100 µM (inactive) | > 100 µM (inactive) | > 100 µM (inactive) | > 100 µM (inactive) | > 100 µM (inactive) | > 100 µM (inactive) | > 100 µM (inactive) | > 100 µM (inactive) | > 100 µM (inactive) | > 100 µM (inactive) | > 100 µM (inactive) | > 100 µM (inactive) | > 100 µM (inactive) | > 100 µM (inactive) | 0.0178 µM (active) | > 100 µM (inactive) | > 100
CCCCCCCCCCCCCCCCOP(=O)(O)OCC(NC(C)=O)C(=O)O (stereo unspecified) | 76 µM (inactive) | > 100 µM (inactive) | 24.2 µM (inactive) | 42.6 µM (inactive) | > 100 µM (inactive) | 33 µM (inactive) | 20 µM (inactive) | – | > 100 µM (inactive) | 18 µM (inactive) | > 100 µM (inactive) | > 100 µM (inactive) | 22.9 µM (inactive) | 19.2 µM (inactive) | 55.3 µM (inactive) | > 100 µM (inactive) | 23.7 µM (inactive) | 32.4 µM (inactive) | 57 µM (inactive) | 18.2
Clc1cccc(Cl)c1C1ON=C(c2ccccc2)N1C12CC3CC(CC(C3)C1)C2 (stereo unspecified) | 43.3 µM (inactive) | 15.2 µM (inactive) | 7.31 µM (inactive) | 41.6 µM (inactive) | 6.7 µM (inactive) | 31 µM (inactive) | 62.5 µM (inactive) | 24 µM (inactive) | 25.2 µM (inactive) | 4.11 µM (inactive) | 13.8 µM (inactive) | 22.3 µM (inactive) | 10.1 µM (inactive) | 31.6 µM (inactive) | 13.3 µM (inactive) | 98.2 µM (inactive) | 63.7 µM (inactive) | 66.1 µM (inactive) | 40.9 µM (inactive) | 9.75
Cc1cc(=O)oc2cc(O)ccc12 [HYMECROMONE] | > 100 µM (inactive) | > 100 µM (inactive) | > 100 µM (inactive) | > 100 µM (inactive) | > 100 µM (inactive) | > 100 µM (inactive) | > 100 µM (inactive) | > 100 µM (inactive) | > 100 µM (inactive) | > 100 µM (inactive) | > 100 µM (inactive) | – | > 100 µM (inactive) | > 100 µM (inactive) | 79.8 µM (inactive) | > 100 µM (inactive) | > 100 µM (inactive) | > 100 µM (inactive) | > 100 µM (inactive) | > 100
